Target: mTOR/GbL/Raptor (mTORC1) (Homo sapiens, UniProt P42345)
Experiment: mTOR/GbL/Raptor (mTORC1) ELISA assay
Assay type: biochemical
Settings: phosphorylation of 4E-BP1; 0.2 nM mTORC1, 10 μM ATP; read-out: IC50 in this assay (mTORC1 ELISA)
Method in brief: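 Human mTORC1 (0.2 nM) phosphorylated 50 nM His-tagged 4E-BP1 with 10 µM ATP in HEPES pH 7.2 containing 10 mM MnCl2, 120 min at ambient temperature. Substrate was captured on Ni-chelate plates; phospho-4E-BP1 was detected by primary antibody and HRP secondary with luminescence.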

| SMILES | IC50 |
| --- | --- |
| Cc1nc2c(C)cc(-c3ccc4c(c3)CN(c3ncnc5cccnc35)CCO4)cc2[nH]1 [Example 214, 7-(2,4-dimethyl-1H-benzimidazol-6-yl)-4-pyrido[3,2-d]pyrimidin-4-yl-2,3,4,5-tetrahydro-1,4-benzoxazepine] | 250 to 1000 nM |
| CC1=Cc2ncnc(N3CCOc4ccc(-c5cnc(N)c(S(=O)(=O)NC[C@H]6CCN(C)C6)c5)cc4C3)c2CC1(C)C [Example 424, 2-amino-N-{[(3S)-1-methylpyrrolidin-3-yl]methyl}-5-[4-(6,6,7-trimethyl-5,6-dihydroquinazolin-4-yl)-2,3,4,5-tetrahydro-1,4-benzoxazepin-7-yl]pyridine-3-sulfonamide] | 50 to 250 nM |
| CCNc1nc2ccc(-c3ccc4c(c3)CN(c3ncnc(Nc5ccccc5)c3C)CCO4)cc2[nH]1 [Example 287, N-ethyl-6-{4-[5-methyl-6-(phenylamino)pyrimidin-4-yl]-2,3,4,5-tetrahydro-1,4-benzoxazepin-7-yl}-1H-benzimidazol-2-amine] | 50 to 250 nM |
| c1ccc2c(N3CCOc4ccc(-c5ccc6nc(C7CC7)[nH]c6c5)cc4C3)ccnc2c1 [Example 199, 7-(2-cyclopropyl-1H-benzimidazol-6-yl)-4-quinolin-4-yl-2,3,4,5-tetrahydro-1,4-benzoxazepine] | 250 to 1000 nM |
| CC1(C)CCc2ncnc(N3CCOc4ccc(-c5cnc(N)c(S(=O)(=O)O)c5)cc4C3)c2C1 [Example 400, 2-amino-5-[4-(6,6-dimethyl-5,6,7,8-tetrahydrquinazolin-4-yl)-2,3,4,5-tetrahydro-1,4-benzoxazepin-7-yl]pyridine-3-sulfonic acid] | 50 to 250 nM |
| COc1ccc2c(N3CCOc4ccc(-c5ccc(OC)c(OC)c5)cc4C3)nc(CN(C)C)nc2c1 [Example 333, 1-[4-{7-[3,4-bis(methyloxy)phenyl]-2,3-dihydro-1,4-benzoxazepin-4(5H)-yl}-7-(methyloxy)quinazolin-2-yl]-N,N-dimethylmethanamine] | ≥ 2000 nM |
| COc1cc2nccc(N3CCOc4ccc(-c5ccc(-c6ncc[nH]6)cc5)cc4C3)c2cc1OC [Example 272, 4-[6,7-bis(methyloxy)quinolin-4-yl]-7-[4-(1H-imidazol-2-yl)phenyl]-2,3,4,5-tetrahydro-1,4-benzoxazepine] | 50 to 250 nM |
| COc1ccc2c(N3CCOc4ccc(-c5cnc6sc(N)nc6c5)cc4C3)nc(C)nc2c1 [Example 661, 6-{4-[2-methyl-7-(methyloxy)quinazolin-4-yl]-2,3,4,5-tetrahydro-1,4-benzoxazepin-7-yl}[1,3]thiazolo[5,4-b]pyridin-2-amine] | 250 to 1000 nM |
| COc1ccc2c(N3CCOc4ccc(-c5cnc(N)c(S(=O)(=O)N6CC[C@H](N)C6)c5)cc4C3)ncnc2c1 [Example 454, 3-{[(3S)-3-aminopyrrolidin-1-yl]sulfonyl}-5-{4-[7-(methyloxy)quinazolin-4-yl]-2,3,4,5-tetrahydro-1,4-benzoxazepin-7-yl}pyridin-2-amine] | 250 to 1000 nM |
| COc1ccc2c(N3CCOc4ccc(-c5ccc(NC(C)=O)cc5)cc4C3)nc(C)nc2c1 [Example 609, N-(4-{4-[2-methyl-7-(methyloxy)quinazolin-4-yl]-2,3,4,5-tetrahydro-1,4-benzoxazepin-7-yl}phenyl)acetamide] | ≥ 2000 nM |
| CCc1c(C)nc(CN(C)C)nc1N1CCOc2ccc(-c3cnc4sc(N)nc4c3)cc2C1 [Example 662, 6-(4-{2-[(dimethylamino)methyl]-5-ethyl-6-methylpyrimidin-4-yl}-2,3,4,5-tetrahydro-1,4-benzoxazepin-7-yl)[1,3]thiazolo[5,4-b]pyridin-2-amine] | 50 to 250 nM |
| CN(C)C(=O)c1cccc(-c2ccc3c(c2)CN(c2ccnc4ccccc24)CCO3)c1 [Example 134, N,N-dimethyl-3-(4-quinolin-4-yl-2,3,4,5-tetrahydro-1,4-benzoxazepin-7-yl)benzamide] | ≥ 2000 nM |
| COc1cc2ncnc(N3CCOc4ccc(-c5ccc6nc(C)[nH]c6c5)cc4C3)c2cc1Br [Example 43, 4-[6-bromo-7-(methyloxy)quinazlolin-4-yl]-7-(2-methyl-1H-benzimidazol-6-yl)-2,3,4,5-tetrahydro-1,4-benzoxazepine] | 50 to 250 nM |
| CC1(C)CCc2ncnc(N3CCOc4ccc(-c5cncc(S(N)(=O)=O)c5)cc4C3)c2C1 [Example 522, 5-[4-(6,6-dimethyl-5,6,7,8-tetrahydroquinazolin-4-yl)-2,3,4,5-tetrahydro-1,4-benzoxazepin-7-yl]pyridin-3-sulfonamide] | 250 to 1000 nM |
| CC1(C)CCc2ncnc(N3CCOc4ccc(-c5cnc(N)c(S(=O)(=O)NC6CCC6)c5)cc4C3)c2C1 [Example 427, 2-amino-N-cyclobutyl-5-[4-(6,6-dimethyl-5,6,7,8-tetrahydroquinazolin-4-yl)-2,3,4,5-tetrahydro-1,4-benzoxazepin-7-yl]pyridine-3-sulfonamide] | 50 to 250 nM |
| COC(=O)Nc1nc2ncc(-c3ccc4c(c3)CN(c3nc(CN(C)C)nc5c3CC(C)(C)CC5)CCO4)cc2[nH]1 [Example 580] | 50 to 250 nM |

Further lines, results first:

| IC50 | SMILES |
| --- | --- |
| 10 to 50 nM | CC1(C)CCc2ncnc(N3CCOc4ccc(-c5cnc(N)c(CS(C)(=O)=O)c5)cc4C3)c2C1 [Example 517, 5-[4-(6,6-dimethyl-5,6,7,8-tetrahydroquinazolin-4-yl)-2,3,4,5-tetrahydro-1,4-benzoxazepin-7-yl]-3-[(methylsulfonyl)methyl] pyridin-2-amine] |
| 50 to 250 nM | CC[C@H]1CCc2c(ncnc2N2CCOc3ccc(-c4cnc5nc([C@@H](C)N)[nH]c5c4)cc3C2)C1 [Example 297, (1R)-1-(6-{4-[(7S)-7-ethyl-5,6,7,8-tetrahydroquinazolin-4-yl]-2,3,4,5-tetrahydro-1,4-benzoxazepin-7-yl}-1H-imidazo[4,5-b]pyridin-2-yl)ethanamine] |
| ≤ 10 nM | Cc1nc(CNCCF)nc(N2CCOc3ccc(-c4cnc5sc(N)nc5c4)cc3C2)c1C(C)C [Example 680, 6-{4-[2-{[(2-fluoroethyl)amino]methyl}-6-methyl-5-(1-methylethyl)pyrimidin-4-yl]-2,3,4,5-tetrahydro-1,4-benzoxazepin-7-yl}[1,3]thiazolo[5,4-b]pyridin-2-amine] |
| ≤ 10 nM | Cc1ncnc(N2CCOc3ccc(-c4ccc5[nH]c(NCCF)nc5c4)cc3C2)c1Cc1ccc(F)cc1 [Example 193, N-(2-fluoroethyl)-5-(4-{5-[(4-fluorophenyl)methyl]-6-methylpyrimidin-4-yl}-2,3,4,5-tetrahydro-1,4-benzoxazepin-7-yl)-1H-benzimidazol-2-amine] |
| 10 to 50 nM | CN(C)Cc1nc2c(c(N3CCOc4ccc(-c5ccc6[nH]c(C(F)F)nc6c5)cc4C3)n1)CC(C)(C)CC2 [Example 320] |
| ≤ 10 nM | Cc1nc2cc(-c3ccc4c(c3)CN(c3nc([C@H]5CCCN5)nc5c3CC(C)(C)CC5)CCO4)cnc2[nH]1 [Example 506, 4-{6,6-dimethyl-2-[(2R)-pyrrolidin-2-yl]-5,6,7,8-tetrahydroquinazolin-4-yl]-7-(2-methyl-3H-imidazo[4,5-b]pyridin-6-yl)-2,3,4,5-tetrahydro-1,4-benzoxazepine] |
| ≤ 10 nM | Cc1nc2ncc(-c3ccc4c(c3)CN(c3nc(CNC(C)C)nc5c3CC(C)(C)CC5)CCO4)cc2[nH]1 [Example 607, N-({6,6-dimethyl-4-[7-(2-methyl-1H-imidazo[4,5-b]pyridin-6-yl)-2,3-dihydro-1,4-benzoxazepin-4(5H)-yl]-5,6,7,8-tetrahydroquinazolin-2-yl}methyl)propan-2-amine] |
| 50 to 250 nM | Cc1nc2ccc(-c3ccc4c(c3)CN(c3ncnc5c(Cl)cc(Cl)cc35)CCO4)cc2[nH]1 [Example 32, 4-(6,8-dichloroquinazolin-4-yl)-7-(2-methyl-1H-benzimidazol-6-yl)-2,3,4,5-tetrahydro-1,4-benzoxazepine] |
| ≤ 10 nM | Cc1ncnc(N2CCOc3ccc(-c4cnc5nc[nH]c5c4)cc3C2)c1Cc1ccc(F)cc1 [Example 142, 4-{5-[(4-fluorophenyl)methyl]-6-methylpyrimidin-4-yl}-7-(1H-imidazo[4,5-b]pyridin-6-yl)-2,3,4,5-tetrahydro-1,4-benzoxazepine] |
| 10 to 50 nM | COc1cc2ncnc(N3CCOc4ccc(-c5cnc6nc(N)[nH]c6c5)cc4C3)c2cc1OC [Example 180, 6-{4-[6,7-bis(methyloxy)quinazolin-4-yl]-2,3,4,5-tetrahydro-1,4-benzoxazepin-7-yl}-1H-imidazo[4,5-b]pyridin-2-amine] |
| ≤ 10 nM | CC[C@H]1CCCc2c(ncnc2N2CCOc3ccc(-c4cnc5nc(C)[nH]c5c4)cc3C2)C1 [Example 490] |
| ≤ 10 nM | Cc1nc(N)nc(N2CCOc3ccc(-c4ccc5[nH]cnc5c4)cc3C2)c1Cc1ccc(F)cc1 [Example 651, 4-[7-(1H-benzimidazol-5-yl)-2,3-dihydro-1,4-benzoxazepin-4(5H)-yl]-5-[(4-fluorophenyl)methyl]-6-methylpyrimidin-2-amine] |
| ≤ 10 nM | CCN(C)Cc1nc2c(c(N3CCOc4ccc(-c5cnc6nc(C)[nH]c6c5)cc4C3)n1)CC(C)(C)CC2 [Example 605, N-({6,6-dimethyl-4-[7-(2-methyl-1H-imidazo[4,5-b]pyridin-6-yl)-2,3-dihydro-1,4-benzoxazepin-4(5H)-yl]-5,6,7,8-tetrahydroquinazolin-2-yl}methyl)-N-methylethanamine] |
| 10 to 50 nM | CC1(C)CCc2ncnc(N3CCOc4ccc(-c5cnc(N)c(S(=O)(=O)NC[C@H]6CCCN6)c5)cc4C3)c2C1 [Example 382, 2-amino-5-[4-(6,6-dimethyl-5,6,7,8-tetrahydrquinazolin-4-yl)-2,3,4,5-tetrahydro-1,4-benzoxazepin-7-yl]-N-[(2R)-pyrrolidin-2-ylmethyl]pyridine-3-sulfonamide] |
| ≤ 10 nM | Cc1nc2ncc(-c3ccc4c(c3)CN(c3nc(CNCC(F)F)nc5c3CC(C)(C)CC5)CCO4)cc2[nH]1 [Example 592, N-({6,6-dimethyl-4-[7-(2-methyl-1H-imidazo[4,5-b]pyridin-6-yl)-2,3-dihydro-1,4-benzoxazepin-4(5H)-yl]-5,6,7,8-tetrahydroquinazolin-2-yl}methyl)-2,2-difluoroethanamine] |

Source: US8648066B2 (Exelixis, Inc., priority 2009, dated 2014)
